# Experimental data: patent publication US12319652B2, “Salts and solid forms of (R)-1-(5-methoxy-1H-indol-1-yl)-N,N-dimethylpropan-2-amine” (priority 2021, dated 2025)
# Where two headings read alike, the source gives them in different places.
# Assays:
# [1] = format: physicochemical
# Experimental: Both samples were maintained at 75% RH at 40° C. and monitored by HPLC at time points t=1 h, 3 h, 24 h, 48 h, 7 d, 2 w, 3 w, 4 w and 5 w.
# Under the conditions evaluated during this study, XRPD analysis could not be performed as compound 1 Fumarate turned to an oily residue within 3 h under both conditions.
# […] Both samples were maintained under equilibrium humidity of 75% RH at 40° C. and monitored, initially at hourly and then weekly time points.
# [2] = Amorphous forms and thermal study (glass temperature Tg by DSC/TGA); format: physicochemical
# [3] = Dynamic vapor sorption (DVS); format: physicochemical; settings: for DVS isotherm type / hygroscopicity: 0 to 90 to 0% RH; for DVS mass change at 90.0% RH / DVS mass change at 0.0% RH / DVS mass change at 5.0% RH / DVS mass change at 10.0% RH / DVS mass change at 15.0% RH / DVS mass change at 20.0% RH / DVS mass change at 25.0% RH / DVS mass change at 30.0% RH / DVS mass change at 40.0% RH / DVS mass change at 50.0% RH / DVS mass change at 60.0% RH / DVS mass change at 70.0% RH / DVS mass change at 80.0% RH: dm/dt <0.002%
# Method in brief: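 At 25 °C, 20 to 50 mg sample was dried at 0% RH for 60 minutes, then humidity raised 0-30% in 5% steps and 30-90% in 10% steps, with matching desorption back to 0%. Equilibrium set at dm/dt 0.002%/min; amorphous material was run with fixed 1 hour steps.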
# [4] = Solubility determinations in SIF buffers (FaSSIF, FeSSIF, FaSSGF); format: physicochemical; settings: 37° C. up to 24 h
# Method in brief: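 Salt forms suspended at 30 mg/ml in FaSSIF, FeSSIF or FaSSGF at 37° C. for 24 h, pH kept in range with 1 M HCl or NaOH. Supernatants sampled at 1, 3, 6 and 24 h, centrifuged and quantified by HPLC as compound 1 free base against amorphous compound 1 calibrants; pellets checked by XRPD for form change.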
# [5] = In-situ hydration evaluation of monofumarate Form A; format: physicochemical; settings: ambient
# Experimental: An XRPD specimen of monofumarate Form A was prepared and treated with sequential aliquots of water.
# An XRPD plate was made up with a small amount of compound 1·Fumarate (batch 1, 5 mg, 1.0 wt) and analysed by XRPD on the 9-minute method and labelled as T=0. After the run, the sample was charged with purified water (10 μL, 2.0 vol) and analysed again by XRPD, labelled as T=9. This was repeated twice more for T=18 and T=27. The sample was left to stand under ambient conditions (15-25° C., ambient humidity, and pressure) in the fume hood for 33 h (FIG. 23).
smiles,measurement,setting,value
COc1ccc2c(ccn2C[C@@H](C)N(C)C)c1.O=C(O)/C=C/C(=O)O [amorphous compound 1 fumarate],HPLC (% area),[1]; input batch 1 before storage at 75% RH/40° C.,93.84 % area
same,HPLC (% area),"[1]; open-necked wide vial, 75% RH/40° C., t = 2 w",91.24 % area
same,HPLC (% area),"[1]; open-necked wide vial, 75% RH/40° C., t = 3 w",94.17 % area
same,HPLC (% area),"[1]; open-necked wide vial, 75% RH/40° C., t = 4 w",91.86 % area
same,HPLC (% area),"[1]; open-necked wide vial, 75% RH/40° C., t = 5 w",91.57 % area
same,HPLC (% area),"[1]; sealed PK0056 electrostatic bags, 75% RH/40° C., t = 2 w",91.21 % area
same,HPLC (% area),"[1]; sealed PK0056 electrostatic bags, 75% RH/40° C., t = 3 w",91.94 % area
same,HPLC (% area),"[1]; sealed PK0056 electrostatic bags, 75% RH/40° C., t = 4 w",90.9 % area
same,HPLC (% area),"[1]; sealed PK0056 electrostatic bags, 75% RH/40° C., t = 5 w",91.3 % area
same,"DSC measurements, Endset",[2]; DSC thermal event Tg,34.30 °C
same,"DSC measurements, Integral",[2]; DSC thermal event Tg,−1.73 Jg^−1
same,"DSC measurements, Onset",[2]; DSC thermal event Tg,21.14 °C
same,"DSC measurements, Peak",[2]; DSC thermal event Tg,29.67 °C
same,Form Assignment,[2]; heated up past the melt event on a hot stage microscope,Amorphous
COc1ccc2c(ccn2C[C@@H](C)N(C)C)c1.O=C(O)/C=C/C(=O)O,"RH above which pronounced mono, multilayer sorption and probable deliquescence occurred",[3],> 80 % RH
same,DVS isotherm type / hygroscopicity,[3]; listed as Form A,DVS mass per unit time equlibrated @ dm/dt (0.0002%/min) on Form A was performed (specimen was deliquescent by DVS).
same,DVS isotherm type / hygroscopicity,[3]; listed as compound 1 fumarate crystalline polymorphic Form A,deliquescent type isotherm
same,DVS weight gain at 70% RH,[3]; 70% RH (printed 70° RH in Example 8),ca. 1 % w/w
same,DVS mass change at 90.0% RH,[3]; desorption step (second 90.0 entry),9.440%
same,DVS mass change at 0.0% RH,[3]; desorption step,0.085%
same,DVS mass change at 5.0% RH,[3]; desorption step,0.113%
same,DVS mass change at 10.0% RH,[3]; desorption step,0.141%
same,DVS mass change at 15.0% RH,[3]; desorption step,0.169%
same,DVS mass change at 20.0% RH,[3]; desorption step,0.201%
same,DVS mass change at 25.0% RH,[3]; desorption step,0.238%
same,DVS mass change at 30.0% RH,[3]; desorption step,0.279%
same,DVS mass change at 40.0% RH,[3]; desorption step,0.374%
same,DVS mass change at 50.0% RH,[3]; desorption step,0.476%
same,DVS mass change at 60.0% RH,[3]; desorption step,0.619%
same,DVS mass change at 70.0% RH,[3]; desorption step,0.885%
same,DVS mass change at 80.0% RH,[3]; desorption step,2.087%
same,DVS mass change at 0.0% RH,[3]; sorption step,0.00%
same,DVS mass change at 5.0% RH,[3]; sorption step,0.021%
same,DVS mass change at 10.0% RH,[3]; sorption step,0.047%
same,DVS mass change at 15.0% RH,[3]; sorption step,0.068%
same,DVS mass change at 20.0% RH,[3]; sorption step,0.088%
same,DVS mass change at 25.0% RH,[3]; sorption step,0.107%
same,DVS mass change at 30.0% RH,[3]; sorption step,0.125%
same,DVS mass change at 40.0% RH,[3]; sorption step,0.173%
same,DVS mass change at 50.0% RH,[3]; sorption step,0.242%
same,DVS mass change at 60.0% RH,[3]; sorption step,0.366%
same,DVS mass change at 70.0% RH,[3]; sorption step,0.590%
same,DVS mass change at 80.0% RH,[3]; sorption step,0.174%
same,DVS mass change at 90.0% RH,[3]; sorption step,9.440%
same,Solubility in FaSSGF,[4],"Solubility in SIF buffers: Soluble in FaSSIF, FeSSIF and FaSSGF at 37°"
same,Solubility in FaSSIF,[4],"Solubility in SIF buffers: Soluble in FaSSIF, FeSSIF and FaSSGF at 37°"
same,Solubility in FeSSIF,[4],"Solubility in SIF buffers: Soluble in FaSSIF, FeSSIF and FaSSGF at 37°"
same,Form change on treatment with sequential aliquots of water (XRPD),[5],conversion into its amorphous form
